Laboratory results: patent publication US20180325914A1, “INCREASING STORAGE OF VITAMIN A, VITAMIN D AND/OR LIPIDS” (Salk Institute for Biological Studies, priority 2014, published 2018)

Test system: primary HSCs
Conditions: mRNA-Seq expression, Day_6_JQ1

Cc1sc2c(c1C)C(c1ccc(Cl)cc1)=N[C@@H](CC(=O)OC(C)(C)C)c1nnc(C)n1-2 [JQ1, (S)-tert-butyl 2-(4-(4-chlorophenyl)-2,3,9-trimethyl-6H-thieno[3,2-f][1,2,4]triazolo[4,3-a][1,4]diazepin-6-yl)acetate]
Nav2 value_2: 5.311
Ndn value_2: 33.2623
Nnmt value_2: 30.0607
Npr2 value_2: 10.1828
Nradd value_2: 15.4656
Nuak1 value_2: 12.6565
Nudt18 value_2: 6.501
Ogdhl value_2: 4.726
Paqr8 value_2: 7.424
Pcolce value_2: 103.689
Pde4dip value_2: 14.9114
Pdia5 value_2: 20.7466
Pgcp value_2: 20.5624
Pgm2 value_2: 36.9612
Pkig value_2: 41.8645
Pla2g4a value_2: 14.8571
Plod3 value_2: 47.8896
Ppp2r5b value_2: 15.5804
Praf2 value_2: 50.8557
Prnp value_2: 204.182
Psd3 value_2: 5.579
Ptger3 value_2: 6.064
Ptgfrn value_2: 24.2749
Ptk2b value_2: 17.1497
Qsox1 value_2: 91.7197
Rasl11a value_2: 68.0496
Rasl11b value_2: 27.3606
Reep5 value_2: 42.7167
Rftn1 value_2: 20.5933
Rhoq value_2: 36.4737
Rian value_2: 23.3478
Samd4 value_2: 15.2321
Scd1 value_2: 23.3211
Sec23a value_2: 28.8101
Sepw1 value_2: 95.2318
Serping1 value_2: 119.681
Setbp1 value_2: 2.434
Shroom3 value_2: 5.757
Slc7a6 value_2: 20.2814
Slc24a3 value_2: 3.111
Snurf value_2: 6.708
Steap2 value_2: 17.4478
Thbs2 value_2: 44.7287
Tmem9 value_2: 20.5522
Tmem176a value_2: 136.733
Tpm2 value_2: 114.662
Ttc19 value_2: 10.9985
Ufsp2 value_2: 21.3133
Ypel5 value_2: 34.2738
Zfp651 value_2: 5.6272
Zmat3 value_2: 18.2014
Zranb3 value_2: 2.608
value_2, gene 2210013O21Rik: 38.055
value_2, gene 2610018G03Rik: 7.783
value_2, gene 2700094K13Rik: 52.964
value_2, gene 2810055F11Rik: 9.372
value_2, gene AI464131: 6.393
value_2, gene Acadsb: 26.5141
value_2, gene Aes: 188.935
value_2, gene Agl: 8.667
value_2, gene Ankrd44: 7.9209
value_2, gene Aplp1: 20.7172
value_2, gene Arhgap1: 99.931
value_2, gene Aurka: 17.2799
value_2, gene Bace1: 40.101
value_2, gene Bmpr1a: 33.5187
value_2, gene Bsg: 560.767
value_2, gene Cacna2d1: 7.615
value_2, gene Calm3: 185.514
value_2, gene Ccdc3: 44.0572
value_2, gene Ccdc102a: 12.129
value_2, gene Ccdc122: 5.501
value_2, gene Ccne1: 13.7889
value_2, gene Cdc42bpg: 9.647
value_2, gene Cenpa: 18.2009
value_2, gene Cfh: 33.8709
value_2, gene Clip3: 25.4738
value_2, gene Cpeb2: 7.639
value_2, gene Cpxm1: 119.242
value_2, gene Ctsf: 19.6316
value_2, gene Cxxc5: 28.6295
value_2, gene Dhcr24: 17.3636
value_2, gene Dynlt3: 74.0523
value_2, gene Efna4: 6.053
value_2, gene Ephb2: 12.3025
value_2, gene Fam26e: 11.6803
value_2, gene Fam168a: 23.5828
value_2, gene Fat1: 68.0733
value_2, gene Fkbp9: 153.585
value_2, gene Fstl1: 883.839
value_2, gene Gadd45g: 151.82
value_2, gene Ggcx: 22.6363
value_2, gene Gjc2: 5.148
value_2, gene Gpam: 13.2457
value_2, gene Gpnmb: 100.919
value_2, gene Gpr153: 15.34
value_2, gene Grb10: 117.152
value_2, gene Gstm4: 11.4343
value_2, gene Gtse1: 16.4741
value_2, gene Gucylb3: 35.4413
value_2, gene Gxylt2: 8.031
value_2, gene Hic1: 40.7263
value_2, gene Hspb6: 15.1361
value_2, gene Htra1: 128.76
value_2, gene Irs2: 11.6492
value_2, gene Itgb5: 206.046
